According to ChEMBL document CHEMBL5252627, “Antiangiogenic Pterocarpan and Flavonoid Constituents of Erythrina lysistemon” (J Nat Prod, 2023):

Tests used:
[1] = system: HREC; assay: Antiangiogenic activity against human HREC cells assessed as inhibition of invitro tubule formation by measuring tubule length at 0.05 to 50 uM and measured after 8 hrs by Matrigel based bright-field microscopy; type: functional, cell-based; conditions: dose 0.05-50 µM
[2] = Antiproliferative activity against human HREC cells assessed as cell growth inhibition incubated for 44 hrs by AlamarBlue reagent based fluorescence assay; type: functional
[3] = Cytotoxicity against human ARPE-19 cells assessed as cell growth inhibition incubated for 44 hrs by AlamarBlue reagent based fluorescence assay; type: toxicity

Question: Which Activity [1] does the source give for `CC(C)=CCc1cc2c(cc1O)OC[C@H]1c3ccc(O)c(CC=C(C)C)c3O[C@@H]21` [ERYBRAEDIN C] here?
Answer: The Activity was “Dose-Dependent Effect”.

Question: And the GI50 [2]?
Answer: Its GI50 is 2.57 µM.

Question: What about the GI50 at 44 h [3] of the same molecule?
Answer: The GI50 at 44 h was greater than 100 µM.

Question: For `CC(C)=CCc1c(O)ccc2c1O[C@H]1c3ccc(O)cc3OC[C@@H]21` [PHASEOLLIDIN], which GI50 [2] is on record?
Answer: The GI50 was greater than 100 µM.

Question: What about the GI50 at 44 h [3] of the same molecule?
Answer: The GI50 at 44 h was greater than 100 µM.

Question: With `CC(C)=CCc1cc2c(c(CC=C(C)C)c1O)OC[C@@H](c1ccc(O)cc1O)C2=O` as the molecule, how does the Activity [1] read?
Answer: The Activity was “Dose-Dependent Effect”.

Question: What about the GI50 [2] of the same molecule?
Answer: The GI50 was 5.85 µM.

Question: What about the GI50 at 44 h [3] of the same molecule?
Answer: Its GI50 at 44 h is greater than 100 µM.

Question: With `CC(C)=CCc1cc2c(c(CC=C(C)C)c1O)OC[C@@H](c1ccc(O)cc1O)C2` as the molecule, how does the Activity [1] read?
Answer: Its Activity is “Dose-Dependent Effect”.

Question: What about the GI50 [2] of the same molecule?
Answer: The GI50 was 3.65 µM.

Question: What about the GI50 at 44 h [3] of the same molecule?
Answer: The GI50 at 44 h was greater than 100 µM.

Question: Which GI50 [2] does the source give for `CC1(C)C=Cc2c(ccc3c2O[C@H]2c4ccc5c(c4OC[C@@H]32)C=CC(C)(C)O5)O1` here?
Answer: The GI50 was greater than 100 µM.

Question: And the GI50 at 44 h [3]?
Answer: The GI50 at 44 h was greater than 100 µM.

Question: With `COc1ccc(CC2COc3cc(OC)c(OC)c(OC)c3C2=O)cc1OC(=O)[C@H](Cc1ccccc1)NC(=O)OC(C)(C)C` (some centres not stated) as the molecule, how does the GI50 [2] read?
Answer: Its GI50 is 0.018 µM.

Question: What about the GI50 at 44 h [3] of the same molecule?
Answer: Its GI50 at 44 h is greater than 100 µM.

Question: For `CC(C)=CCc1c(O)ccc2c1OC[C@H]1c3ccc4c(c3O[C@@H]21)CC(O)C(C)(C)O4` (some centres not stated), which Activity [1] is on record?
Answer: The Activity was “Dose-Dependent Effect”.

Question: And the GI50 [2]?
Answer: Its GI50 is 4.67 µM.

Question: What about the GI50 at 44 h [3] of the same molecule?
Answer: Its GI50 at 44 h is greater than 100 µM.

Question: For `COc1ccc2c(c1CC=C(C)C)O[C@H]1c3ccc(O)cc3OC[C@@H]21` [SANDWICENSIN], which Activity [1] is on record?
Answer: The Activity was “Dose-Dependent Effect”.

Question: What about the GI50 [2] of the same molecule?
Answer: Its GI50 is 5.91 µM.

Question: What about the GI50 at 44 h [3] of the same molecule?
Answer: Its GI50 at 44 h is greater than 100 µM.

Question: For `CC1(C)C=Cc2c(ccc3c2O[C@H]2c4ccc(O)cc4OC[C@@H]32)O1` [PHASEOLIN], which Activity [1] is on record?
Answer: The Activity was “Dose-Dependent Effect”.

Question: What about the GI50 [2] of the same molecule?
Answer: The GI50 was 4.65 µM.

Question: What about the GI50 at 44 h [3] of the same molecule?
Answer: Its GI50 at 44 h is greater than 100 µM.

Question: Which results are given for `CC(C)=CCc1c(O)ccc2c1O[C@H]1c3ccc(O)c(CC=C(C)C)c3OC[C@@H]21` [ERYBRAEDIN A]?
Answer: Activity [1]: Dose-Dependent Effect; GI50 [2]: 4.21 µM; GI50 at 44 h [3]: > 100 µM
